Measured values as given in patent publication US20190327974A1, “SYNERGISTS FOR IMPROVED PESTICIDES” (priority 2017, published 2019).

What was measured:
[1] = system: Myzus persicae (Green peach aphid); assay: CPE combined with boronic acid derivatives on small broad bean leaves; type: in vivo; details: for toxicity of the boronic acid derivative alone (in words): ANOVAs followed by Newman-Keuls tests, threshold 5%; for insecticidal efficacy of CPE on addition of the compound (in words): CPE at 2.8 g a.i./ha and 5.6 g a.i./ha; for Percentage of efficacy: boronic acid, where present, 0.2 mg/ml
Experimental: […] The treatment was performed with an agricultural nozzle (300 L per hectare) […]. A non-treated control condition were also evaluated in parallel. Statistical analysis of the data was then performed. When the leaves were totally dry, 3 leaves were sampled and infested with 3 wingless adults of M. persicae per leaf fragment.
• T+1 (DAT 1)—One day later the number of adults remaining on the leaves was counted. • T+3 (DAT 3)—3 days after treatment the aphid population was estimated; • T+7 (DAT 7)—7 days after treatment the development of aphid population was estimated.
3 bean leaves fragments per microbox*4 microbox per condition (1 condition is 1 formulation at 1 dose)*9 adult aphids per microbox*4 insecticides (3 chlorpyrifos derivates+clorpyrifos alone)*4 rates+2 controls (1 reference insecticide formulation at one dose and non-treated)*3 assessments timings (DAT+1, DAT+3 and DAT+7).

[2] = system: Ostrinia nubilalis (European corn borer); assay: CPE combined with boronic acid derivatives on corn leaves; type: in vivo; details: for toxicity of the boronic acid derivative alone (in words): some larvae death with 3.10 and 3.7 at 6 DAT; for efficacy on addition of the compound compared with CPE used alone (in words): 1 DAT and 3 DAT at the dose of 15.6 g a.i./ha
Experimental: (§1) Treatments were performed by spraying a volume of mixture corresponding to 200 l/ha. 4 boxes/condition.
(§2) Drying 1 h at 20° C.; Deposit of three leaf fragments per box on water agar (4 box/condition); Infection of each leaf fragment with 4 Ostrinia nubilalis (12 larvae/box); Incubation 18° C./28° C. […] The percentage of mortality was calculated for each assessment times. Statistical analysis of the data was performed with XLSTAT® software (ANOVAs followed by Newman-Keuls tests with a threshold of 5%, see Table below).

[3] = target: bacterial AmpC β-lactamase (Escherichia coli, UniProt P00811); assay: AmpC β-lactamase selectivity; type: biochemical
Sequence of bacterial AmpC β-lactamase (P00811 20-377): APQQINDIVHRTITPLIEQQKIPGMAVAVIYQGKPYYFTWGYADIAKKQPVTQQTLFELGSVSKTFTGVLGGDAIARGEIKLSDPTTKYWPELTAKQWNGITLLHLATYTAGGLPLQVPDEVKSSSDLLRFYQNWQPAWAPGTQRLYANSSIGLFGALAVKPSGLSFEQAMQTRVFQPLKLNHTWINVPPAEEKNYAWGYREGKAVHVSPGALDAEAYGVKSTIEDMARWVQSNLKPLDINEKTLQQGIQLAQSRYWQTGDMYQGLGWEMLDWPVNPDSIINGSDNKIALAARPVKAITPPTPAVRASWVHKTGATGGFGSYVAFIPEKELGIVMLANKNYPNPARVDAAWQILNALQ
Experimental: To characterize the selectivity of boronic acids 1 to 5, they were assayed against AChE, the target of OP and carbamate insecticides (Table 1) as well as trypsin and bacterial AmpC β-lactamase. […] The toxicity of the hits against two human cell lines was further assessed.
To characterize the selectivity of boronic acids 1 to 5, they were assayed against the target of OP insecticides, AChE, as well as trypsin and bacterial AmpC β-lactamase (Table 1). AChE and αE7 are homologous, sharing the α/β-hydrolase fold and the same catalytic machinery, however the topology of their binding pockets is dissimilar (Jackson, C. J. et al. Structure and function of an insect α-carboxylesterase (αEsterase7) associated with insecticide resistance. Proc. Natl. Acad. Sci. U.S.A. 110, 10177-82 (2013) and Correy, G. J. et al. Mapping the Accessible Conformational Landscape of an Insect Carboxylesterase Using Conformational Ensemble Analysis and Kinetic Crystallography. Structure 24, 1-11 (2016).). Both trypsin and AmpC β-lactamase contain an activated serine nucleophile and oxyanion hole, however trypsin contains a serine-histidine-aspartic acid (Hedstrom, L. Serine protease mechanism and specificity. Chem. Rev. 102, 4501-4523 (2002).) while AmpC β-lactamase contains a serine-tyrosine-lysine catalytic triad (Dubus, A., et al. The roles of residues Tyr150, Glu272, and His314 in class C β-lactamases. Proteins Struct. Funct. Genet. 25, 473-485 (1996).).

[4] = system: Ostrinia nubilalis (European corn borer); assay: Efficacy of chlorpyrifos-ethyl with boronic acids on European corn borer on corn leaves; type: in vivo; details: boronic acid where present 0.2 mg/ml
Experimental: as §1, §2

[5] = 1 DAT, boronic acid alone 0.2 mg/ml
[6] = 1 DAT, boronic acid alone 0.2 mg/ml, 12 larvae/box
[7] = 3 DAT, boronic acid alone 0.2 mg/ml
[8] = 3 DAT, boronic acid alone 0.2 mg/ml, 12 larvae/box
[9] = 6 DAT, boronic acid alone 0.2 mg/ml
[10] = 6 DAT, boronic acid alone 0.2 mg/ml, 12 larvae/box
[11] = 1 DAT, CPE 2.5 g a.i./ha, boronic acid, where present, 0.2 mg/ml
[12] = 1 DAT, CPE 6.24 g a.i./ha, boronic acid, where present, 0.2 mg/ml
[13] = 1 DAT, CPE 15.6 g a.i./ha, boronic acid, where present, 0.2 mg/ml
[14] = 1 DAT, CPE 39 g a.i./ha, boronic acid, where present, 0.2 mg/ml
[15] = 3 DAT, CPE 2.5 g a.i./ha, boronic acid, where present, 0.2 mg/ml
[16] = 3 DAT, CPE 6.24 g a.i./ha, boronic acid, where present, 0.2 mg/ml
[17] = 3 DAT, CPE 15.6 g a.i./ha, boronic acid, where present, 0.2 mg/ml
[18] = 3 DAT, CPE 39 g a.i./ha, boronic acid, where present, 0.2 mg/ml
[19] = 6 DAT, CPE 2.5 g a.i./ha, boronic acid, where present, 0.2 mg/ml
[20] = 6 DAT, CPE 6.24 g a.i./ha, boronic acid, where present, 0.2 mg/ml
[21] = 6 DAT, CPE 15.6 g a.i./ha, boronic acid, where present, 0.2 mg/ml
[22] = 6 DAT, CPE 39 g a.i./ha, boronic acid, where present, 0.2 mg/ml

## CC(C)Oc1cc(Br)cc(B(O)O)c1 [Compound 3.7, 3-Bromo-5-isopropoxyphenylboronic acid]
[1]
  toxicity of the boronic acid derivative alone (in words): No significant toxicity
  insecticidal efficacy of CPE on addition of the compound (in words): increased
[2]; 0.2 mg/ml
  toxicity of the boronic acid derivative alone (in words): Absence of significant toxicity
[2]
  efficacy on addition of the compound compared with CPE used alone (in words): increased significantly the efficacy
[2]; [5]
  Percentage of efficacy: 3%
[2]; [6]
  Evaluation of Larvae number, Mean: 11.7
[2]; [7]
  Percentage of efficacy: 4%
[2]; [8]
  Evaluation of Larvae number, Mean: 11
[2]; [9]
  Percentage of efficacy: 26%
[2]; [10]
  Evaluation of Larvae number, Mean: 8

## OB(O)c1ccc(OCc2ccccc2F)c(Cl)c1 [Compound 5, 3-Chloro-4(2′-fluorobenzyloxy) phenylboronic acid]
[3]
  Ki: 220 nM
[1]
  toxicity of the boronic acid derivative alone (in words): No significant toxicity
  insecticidal efficacy of CPE on addition of the compound (in words): increased
[2]; 0.2 mg/ml
  toxicity of the boronic acid derivative alone (in words): Absence of significant toxicity
[2]; [5]
  Percentage of efficacy: 0%
[2]; [6]
  Evaluation of Larvae number, Mean: 12
[2]; [7]
  Percentage of efficacy: 0%
[2]; [8]
  Evaluation of Larvae number, Mean: 12
[2]; [9]
  Percentage of efficacy: 4%
[2]; [10]
  Evaluation of Larvae number, Mean: 10.3

## CCOP(=S)(OCC)Oc1nc(Cl)c(Cl)cc1Cl [CPE, Chlorpyrifos-ethyl]
[1]; 1 DAT, CPE 0.7
  Percentage of efficacy: 38%
[1]; 1 DAT, CPE 1.4
  Percentage of efficacy: 41%
  Calibration results: 33%
[1]; 1 DAT, CPE 2.8 g a.i./ha
  Percentage of efficacy: 32%
[1]; 1 DAT, CPE 5.6 g a.i./ha
  Percentage of efficacy: 36%
[1]; 3 DAT, CPE 0.7
  Percentage of efficacy: 20%
[1]; 3 DAT, CPE 1.4
  Percentage of efficacy: 27%
  Calibration results: 51%
[1]; 3 DAT, CPE 2.8 g a.i./ha
  Percentage of efficacy: 26%
[1]; 3 DAT, CPE 5.6 g a.i./ha
  Percentage of efficacy: 48%
[1]; 7 DAT, CPE 0.7
  Percentage of efficacy: 25%
[1]; 7 DAT, CPE 1.4
  Percentage of efficacy: 25%
  Calibration results: 51%
[1]; 7 DAT, CPE 2.8 g a.i./ha
  Percentage of efficacy: 23%
[1]; 7 DAT, CPE 5.6 g a.i./ha
  Percentage of efficacy: 67%
[1]; 1 DAT, CPE 2.8
  Calibration results: 31%
[1]; 1 DAT, CPE 5.6
  Calibration results: 67%
[1]; 3 DAT, CPE 2.8
  Calibration results: 79%
[1]; 3 DAT, CPE 5.6
  Calibration results: 98%
[1]; 7 DAT, CPE 2.8
  Calibration results: 99%
[1]; 7 DAT, CPE 5.6
  Calibration results: 100%
[2]; [11]
  Evaluation of Larvae number, Mean: 12
  Percentage of efficacy: 0%
[2]; [12]
  Evaluation of Larvae number, Mean: 10.7
  Percentage of efficacy: 11%
[2]; [13]
  Evaluation of Larvae number, Mean: 7.3
  Percentage of efficacy: 40%
[2]; [14]
  Evaluation of Larvae number, Mean: 3.3
  Percentage of efficacy: 72%
[2]; [15]
  Evaluation of Larvae number, Mean: 12
  Percentage of efficacy: 0%
[2]; [16]
  Evaluation of Larvae number, Mean: 9.7
  Percentage of efficacy: 16%
[2]; [17]
  Evaluation of Larvae number, Mean: 7
  Percentage of efficacy: 39%
[2]; [18]
  Evaluation of Larvae number, Mean: 2
  Percentage of efficacy: 83%
[2]; [19]
  Evaluation of Larvae number, Mean: 8
  Percentage of efficacy: 26%
[2]; [20]
  Evaluation of Larvae number, Mean: 4
  Percentage of efficacy: 63%
[2]; [21]
  Evaluation of Larvae number, Mean: 3.5
  Percentage of efficacy: 67%
[2]; [22]
  Evaluation of Larvae number, Mean: 1.3
  Percentage of efficacy: 88%
[4]; CPE 2.5, 1 DAT
  Percentage of efficacy: 0%
[4]; CPE 2.5, 3 DAT
  Percentage of efficacy: 0%
[4]; CPE 2.5, 6 DAT
  Percentage of efficacy: 26%
[4]; CPE 2.5 g a.i./ha, 1 DAT
  Larvae number, mean: 12
[4]; CPE 2.5 g a.i./ha, 3 DAT
  Larvae number, mean: 12
[4]; CPE 2.5 g a.i./ha, 6 DAT
  Larvae number, mean: 8
[4]; CPE 6.24, 1 DAT
  Percentage of efficacy: 11%
[4]; CPE 6.24, 3 DAT
  Percentage of efficacy: 16%
[4]; CPE 6.24, 6 DAT
  Percentage of efficacy: 63%
[4]; CPE 6.24 g a.i./ha, 1 DAT
  Larvae number, mean: 10.7
[4]; CPE 6.24 g a.i./ha, 3 DAT
  Larvae number, mean: 9.7
[4]; CPE 6.24 g a.i./ha, 6 DAT
  Larvae number, mean: 4
[4]; CPE 15.6, 1 DAT
  Percentage of efficacy: 40%
[4]; CPE 15.6, 3 DAT
  Percentage of efficacy: 39%
[4]; CPE 15.6, 6 DAT
  Percentage of efficacy: 67%
[4]; CPE 15.6 g a.i./ha, 1 DAT
  Larvae number, mean: 7.3
[4]; CPE 15.6 g a.i./ha, 3 DAT
  Larvae number, mean: 7
[4]; CPE 15.6 g a.i./ha, 6 DAT
  Larvae number, mean: 3.5
[4]; CPE 39, 1 DAT
  Percentage of efficacy: 72%
[4]; CPE 39, 3 DAT
  Percentage of efficacy: 83%
[4]; CPE 39, 6 DAT
  Percentage of efficacy: 88%
[4]; CPE 39 g a.i./ha, 1 DAT
  Larvae number, mean: 3.3
[4]; CPE 39 g a.i./ha, 3 DAT
  Larvae number, mean: 2
[4]; CPE 39 g a.i./ha, 6 DAT
  Larvae number, mean: 1.3

## OB(O)c1cc(Br)cc(Oc2ccccc2)c1 [Compound 3.10, 3-Bromo-5-phenoxyfenylboronic acid]
[1]
  toxicity of the boronic acid derivative alone (in words): No significant toxicity
  insecticidal efficacy of CPE on addition of the compound (in words): increased
[2]; 0.2 mg/ml
  toxicity of the boronic acid derivative alone (in words): Absence of significant toxicity
[2]
  efficacy on addition of the compound compared with CPE used alone (in words): increased significantly the efficacy
[2]; [5]
  Percentage of efficacy: 0%
[2]; [7]
  Percentage of efficacy: 0%
[2]; [9]
  Percentage of efficacy: 22%

## Cc1ccc(B(O)O)cc1Br [Compound 1]
[3]
  Ki: 216 nM

## OB(O)c1ccc2ccccc2c1 [Compound 4]
[3]
  Ki: 104 nM

## Cc1ccc(B(O)O)cc1OCc1ccccc1 [Compound 2]
[3]
  Ki: 380 nM
